According to patent US8821908B2, “Mold-resistant construction materials” (Henkel AG & Co. KGaA, priority 2004, dated 2014):

Assays:
Assay type in all cases: cell-based
[1] = tested on: test fungi envisaged in DIN EN ISO 846 or Aspergillus niger (ATCC 6275) as sole test organism; experiment: Fungal resistance of cured silicone joint sealant films, test along the lines of DIN EN ISO846 after QUV aging (infestation index); parameters: key to Infestation index: sum of weekly growth ratings (0 = no growth to 5 = fully overgrown)
Experimental: Cured silicone films (approximately 80×60×5 mm) are sprayed alternately for 15 minutes each with a spray solution (2% strength aqueous Texapon NSO solution containing 0.5% Dehydran 1513 defoamer), then irradiated with UV light for 15 minutes, in a QUV accelerated weathering instrument (e.g. QUV-spray model). Per week, the test specimens are exposed to 198 spraying units and 198 UV units. After 4 (792 shower cycles), 8 (1584 shower cycles), and 12 weeks (2376 shower cycles), test specimens are taken for microbiological examination. An unweathered sample is likewise investigated microbiologically.
The fungal resistance of cured joint-sealing compounds is assessed in a method based on DIN EN ISO846: “Determination of the action of microorganisms on plastics (ISO 846:1997 German version EN ISO 846: 1997); (amended).
Test specimens of cured joint-sealing compounds are applied planarly to an agar surface. A fungal suspension is caused to act on the test specimens and the surrounding agar surface. After incubation, an assessment is made of the growth on and around the test specimens.
Test conditions: The following important amendments and additions to the DIN EN ISO 846 are carried out: • (1) The test specimens are tested to DIN EN ISO 846 without pretreatment. Additionally, test specimens are also assessed in the test after pretreatment. This pretreatment (leaching) may take place, for example, by incubation for a number of weeks in a flow-traversed immersion bath with water or by accommodating suitable test specimens in a QUV; • (2) The fungal spore suspension is incubated under relatively harsh, realistic conditions with increased ambient air humidity (approximately 85% relative humidity) in a humid chamber; • (3) The test specimens are incubated on ‘complete nutrient medium’ (cf. DIN EN ISO 846 4.2.1.2 method B), but with ‘wort agar’; • (4) As test organisms use is made either of the test fungi envisaged in DIN EN ISO 846: • Aspergillus niger ATCC 6275 • Penicillium funiculosum ATCC 36839 • Paecilomyces variotii ATCC 18502 • Gliocladium virens ATCC 9645 • Chaetomium globosum ATCC 6205 • or, alternatively, the strain Aspergillus niger (ATCC 6275) as sole test organism.
Evaluation of the growth on the test elements: • 0=no growth visible under microscope viewing • 1=no growth visible with naked eye, but growth clearly visible under the microscope • 2=growth visible with naked eye, up to 25% of the sample surface overgrown • 3=growth visible with naked eye, up to 50% of the sample surface overgrown • 4=considerable growth, over 50% of the sample surface overgrown • 5=severe growth, entire sample surface overgrown
All in all, the specimens are incubated for 18 weeks and inoculated again after 4 and 8 weeks in each case. The individual evaluations are added over this period and reported collectively as the infestation index.
A commercially customary silicone joint sealant (e.g., Dow Corning 3390) is admixed with the actives described and stirred with a stirrer until homogeneity is achieved. Thereafter, films of the sealant are produced and tested as described above.

[2] = tested on: Aspergillus niger (DSM1988); experiment: Sporulation inhibition on wort agar plates
Experimental: The surface of wort agar plates was contaminated with 100 μl in each case of a microbial suspension (10^3 CFU/ml) of Aspergillus niger (DSM1988). Added beforehand to the agar plates were different amounts of active (solutions in ethanol, for final concentrations see table). The plates were incubated at 25° C. for 3 days. Spore formation was assessed visually and the sporulation rate was ascertained in [%]. A growth inhibition or microbicidal effect only occurred for a concentration of 0.05% by weight OPP.

[3] = tested on: Candida albicans; experiment: Hyphal formation and cell growth of Candida albicans
Excerpt: Fucoidin, also known under the name fucosidan or fucoidan, is a polysaccharide from brown algae (Fucus vesiculosa, bladder wrack) which consists principally of sulfated L-fucose in 1,2-α-glycosidic linkage.

[4] = Amount of active added 500 ppm in silicone joint sealant, evaluations (0-5) added over 18 weeks
[5] = Amount of active added 1000 ppm in silicone joint sealant, evaluations added over 18 weeks

## CCCCCCCCn1sc(Cl)c(Cl)c1=O [DCOIT]
[1]; [4]
  Infestation index: 77
[1]; [5]
  Infestation index: 81
[1]; Amount of active added 2000 ppm in silicone joint sealant, evaluations added over 18 weeks
  Infestation index: 78

## CC(C)(C)C(O)(CCc1ccc(Cl)cc1)Cn1cncn1 (stereo not shown) [Tebuconazole, a-(2-(4-chlorophenyl)ethyl)-a-(1,1-dimethylethyl)-1H-1,2,4-triazole-1-ethanol]
[1]; [4]
  Infestation index: 60
[1]; [5]
  Infestation index: 57
[1]; Amount of active added 2500 ppm in silicone joint sealant, evaluations added over 18 weeks
  Infestation index: 37
[1]; Amount of active added 5000 ppm in silicone joint sealant, evaluations added over 18 weeks
  Infestation index: 20
[1]; Amount of active added 10000 ppm in silicone joint sealant, evaluations added over 18 weeks
  Infestation index: 12
[1]; in sealants, not observed with fungicides typically used at present
  dependence of mold prevention on concentration: virtually linear dependence with increasing concentration

## Oc1ccccc1-c1ccccc1 [ortho-phenylphenol]
[2]; Concentration of OPP 0.00001 %, 25° C., 3 days, assessed visually
  Sporulation [%]: 95%
[2]; Concentration of OPP 0.00005 %, 25° C., 3 days
  Sporulation [%]: 95%
[2]; Concentration of OPP 0.0001 %, 25° C., 3 days
  Sporulation [%]: 95%
[2]; Concentration of OPP 0.0005 %, 25° C., 3 days
  Sporulation [%]: 50%
[2]; Concentration of OPP 0.001 %, 25° C., 3 days
  Sporulation [%]: 25%
[2]; Concentration of OPP 0.005 %, 25° C., 3 days
  Sporulation [%]: 0%
[2]; without any growth inhibition activity occurring
  concentration of complete suppression of spore formation relative to growth-inhibiting concentration: fifty times lower
[2]; wort agar, 25° C., 3 days
  concentration at which a growth inhibition or microbicidal effect occurred: 0.05 % by weight
  use concentration at which spore formation was suppressed completely: 0.001 % by weight

## Fucoidin
[3]
  cell growth: unaffected
  hyphal formation: significantly reduced

## ortho-phenylphenol-silicic ester
[2]; Concentration of OPP-silicic ester 0.00001 %, 25° C., 3 days
  Sporulation [%]: 95%
[2]; Concentration of OPP-silicic ester 0.00005 %, 25° C., 3 days
  Sporulation [%]: 95%
[2]; Concentration of OPP-silicic ester 0.0001 %, 25° C., 3 days
  Sporulation [%]: 95%
[2]; Concentration of OPP-silicic ester 0.0005 %, 25° C., 3 days
  Sporulation [%]: 50%
[2]; Concentration of OPP-silicic ester 0.001 %, 25° C., 3 days
  Sporulation [%]: 25%
[2]; Concentration of OPP-silicic ester 0.005 %, 25° C., 3 days
  Sporulation [%]: 0%
[2]; Concentration of OPP-silicic ester 0.01 %, 25° C., 3 days
  Sporulation [%]: 0%
[2]; wort agar, 25° C., 3 days
  use concentration at which spore formation was suppressed completely: 0.005 % by weight
